Test results: patent US8232283B2, “Raf inhibitors” (Forma Therapeutics, Inc., priority 2008, dated 2012)

Tests used:
[1] = biological target: T1, C-Raf (Homo sapiens, UniProt P04049); experiment: Biochemical inhibition, standard selectivity panel (Proteros); design: dose or concentration left out as unconfirmed
T1 construct: purchased Proteros biostructures GmbH (selectivity panel service)
Procedure: (§1) For example, selected compound of the present invention were tested in a standard selectivity panel including c-Raf, p38, and 22 other kinases (Proteros biostructures GmbH, Martinsried/Munich, Germany), under conditions of non-disclosure, non-dissemination and non-use.
(§2) In brief, selected compounds of the present invention were tested […] in triplicates against c-Raf, p38 as well as against Ab1, Akt1, Aur A, c-Kit, c-Raf, Cdk1/CycB, Chk1, FGFR3, Flt3, Fyn, IGF1-R, INSR, Lyn, MAPK-ERK1, PAK-4, PKCalpha, Plk1, Ret, ROCK2, RSK 1, c-Src, TIE2, and VEGF-R2.

[2] = biological target: T2, p38 (Homo sapiens, UniProt Q16539); experiment: as above; design: dose or concentration left out as unconfirmed
T2 construct: purchased Proteros biostructures GmbH (selectivity panel service)
Procedure: as §1, §2

[3] = test system: HT-29 [B-Raf V600E mutant]; experiment: Anti-proliferative activity, SRB assay, 72 hours; type: cell-based; settings: Homo sapiens, read-out: CELLULAR IC50 [μM] HT-29 [B-Raf V600E mutant]
Procedure: We observed the surprising finding that compounds of the invention were useful in inhibiting proliferation of HT-29 tumor cells (see Table 3).
(§3) Cells were exposed to the test compounds at various concentrations appropriate to determine an IC50, for 72 hours, and cell proliferation was measured using the SRB assay according to Shekan et al (J Natl Cancer Inst (1990) 82, 1107-112) in order to estimate the IC50 values shown in Table 3.
(§4) Briefly, cells were plated in 96 well dishes 24 hours prior to compound addition at the densities specified in Table 11.1.
(§5) The assay was terminated with the addition of ice cold 10% TCA after growth medium has been removed and the plates were incubated over night at 4° C. The plates were then washed 5 times with water and 100 μl of a Sulforhodamine B solution ([…]) was added to each well. The plates were then incubated for 10 minutes at room temperature before removal of unbound dye by washing with 1% acetic acid. The bound dye was solubilized with 10 mM Trizma base and the absorbance read at OD520.
(§6) Inhibitory activity of the compounds was calculated as % inhibition of cell proliferation compared to cells treated with the solvent (DMSO).

[4] = test system: A-431 [B-Raf wildtype]; experiment: Anti-proliferative activity, SRB assay, 72 hours; type: cell-based; settings: Homo sapiens, read-out: CELLULAR IC50 [μM] A-431 [B-Raf wildtype]
Procedure: as §3, §4, §5, §6

T2 sequence (Q16539 whole entry): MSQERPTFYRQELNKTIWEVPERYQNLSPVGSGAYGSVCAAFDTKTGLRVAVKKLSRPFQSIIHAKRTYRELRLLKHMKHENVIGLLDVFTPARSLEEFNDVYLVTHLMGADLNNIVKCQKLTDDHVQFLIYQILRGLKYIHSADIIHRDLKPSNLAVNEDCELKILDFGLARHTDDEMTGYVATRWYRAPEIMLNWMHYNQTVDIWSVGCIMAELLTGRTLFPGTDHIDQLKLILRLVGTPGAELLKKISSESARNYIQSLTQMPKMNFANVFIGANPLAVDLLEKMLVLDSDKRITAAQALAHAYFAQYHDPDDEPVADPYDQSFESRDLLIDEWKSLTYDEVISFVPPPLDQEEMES
T1 sequence (P04049 whole entry): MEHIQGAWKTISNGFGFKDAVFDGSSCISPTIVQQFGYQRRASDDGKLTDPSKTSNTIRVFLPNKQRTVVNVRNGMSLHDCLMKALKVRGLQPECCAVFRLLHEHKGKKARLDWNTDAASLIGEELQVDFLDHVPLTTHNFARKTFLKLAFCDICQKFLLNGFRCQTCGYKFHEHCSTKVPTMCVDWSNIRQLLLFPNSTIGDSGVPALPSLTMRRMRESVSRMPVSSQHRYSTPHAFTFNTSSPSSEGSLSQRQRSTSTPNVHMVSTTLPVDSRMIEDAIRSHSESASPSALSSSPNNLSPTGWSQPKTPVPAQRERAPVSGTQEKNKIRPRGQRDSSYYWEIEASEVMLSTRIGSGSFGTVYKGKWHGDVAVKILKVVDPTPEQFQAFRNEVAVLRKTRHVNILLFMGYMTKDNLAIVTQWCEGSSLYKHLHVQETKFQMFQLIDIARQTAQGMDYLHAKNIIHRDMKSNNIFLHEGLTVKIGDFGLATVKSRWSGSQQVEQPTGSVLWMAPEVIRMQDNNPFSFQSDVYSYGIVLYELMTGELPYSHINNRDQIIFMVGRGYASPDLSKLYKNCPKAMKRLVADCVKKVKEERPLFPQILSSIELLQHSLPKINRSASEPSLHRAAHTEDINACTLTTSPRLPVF

SMILES | inhibition [1] | inhibition [2] | IC50 [3] | IC50 [4]
COn1c(=O)c(-c2cc(NC(=O)c3ccc(OCc4cccc(F)c4)c(Cl)c3)ccc2Cl)cc2cnc(NCCN(C)C)nc21 [Compound 32, 3-Chloro-N-{4-chloro-3-[2-(2-dimethylamino-ethylamino)-8-methoxy-7-oxo-7,8-dihydro-pyrido[2,3-d]pyrimidin-6-yl]-phenyl}-4-(3-fluoro-benzyloxy)-benzamide] | > 70% | > 70% | < 5 µM | < 10 µM
COn1c(=O)c(-c2cc(NC(=O)c3cc(Cl)nc(NC(C)C)c3)ccc2Cl)cc2cnc(NCCN(C)C)nc21 [Compound 64, 2-Chloro-N-(4-chloro-3-(2-(2-(dimethylamino)ethylamino)-8-methoxy-7-oxo-7,8-dihydropyrido[2,3-d]pyrimidin-6-yl)phenyl)-6-isopropylamino-isonicotinamide] | > 70% | > 70% | < 5 µM | > 10 µM
COn1c(=O)c(-c2cc(NC(=O)Nc3ccc(C(F)(F)F)cc3)ccc2Cl)cc2cnc(NCCN(C)C)nc21 [Compound 41, 1-{4-Chloro-3-[2-(2-dimethylamino-ethylamino)-8-methoxy-7-oxo-7,8-dihydro-pyrido[2,3-d]pyrimidin-6-yl]-phenyl}-3-(4-trifluoromethyl-phenyl)-urea] | > 70% | > 70% | < 5 µM | < 10 µM
COn1c(=O)c(-c2cc(NC(=O)c3cccc(C(F)(F)F)c3)ccc2Cl)cc2cnc(NCCN(C)C)nc21 [Compound 24, N-{4-Chloro-3-[2-(2-dimethylamino-ethylamino)-8-methoxy-7-oxo-7,8-dihydro-pyrido[2,3-d]pynmidin-6-yl]-phenyl}-3-trifluoromethyl-benzamide] | > 70% | > 70% | < 5 µM | > 10 µM
COn1c(=O)c(-c2cc(NC(=O)c3cc(Cl)nc(N4CCOCC4)c3)ccc2Cl)cc2cnc(NCCN(C)C)nc21 [Compound 61, 2-Chloro-N-(4-chloro-3-(2-(2-(dimethylamino)ethylamino)-8-methoxy-7-oxo-7,8-dihydropyrido[2,3-d]pyrimidin-6-yl)phenyl)-6-morpholin-4-yl-isonicotinamide] | > 70% | > 70% | < 5 µM | > 10 µM
COn1c(=O)c(-c2cc(NC(=O)c3cc(C(F)(F)F)ccc3F)ccc2Cl)cc2cnc(NCCN(C)C)nc21 [Compound 23, N-{4-Chloro-3-[2-(2-dimethylamino-ethylamino)-8-methoxy-7-oxo-7,8-dihydro-pyrido[2,3-d]pyrimidin-6-yl]-phenyl]-2-fl uoro-5-trifluoromethyl-benzamide] | > 70% | > 70% | < 5 µM | > 10 µM
COn1c(=O)c(-c2cc(NC(=O)Nc3ccc(C)c(C(F)(F)F)c3)ccc2Cl)cc2cnc(NCCN(C)C)nc21 [Compound 47, 1-{4-Chloro-3-[2-(2-dimethylamino-ethylamino)-8-methoxy-7-oxo-7,8-dihydro-pyrido[2,3-d]pyrimidin-6-yl]-phenyl}-3-(4-methyl-3-trifluoromethyl-phenyl)-urea] | > 70% | > 70% | < 5 µM | > 5 µM
COn1c(=O)c(-c2cc(NC(=O)Nc3cc(C(F)(F)F)cc(C(F)(F)F)c3)ccc2Cl)cc2cnc(NCCN(C)C)nc21 [Compound 50, 1-(3,5-Bis-trifluoromethyl-phenyl)-3-{4-chloro-3-[2-(2-dimethylamino-ethylamino)-8-methoxy-7-oxo-7,8-dihydro-pyrido[2,3-d]pyrimidin-6-yl]-phenyl}-urea] | > 70% | > 70% | < 5 µM | < 10 µM
COn1c(=O)c(-c2cc(NC(=O)c3ccc(F)c(C(F)(F)F)c3)ccc2Cl)cc2cnc(NCCN(C)C)nc21 [Compound 17, N-{4-Chloro-3-[2-(2-dimethylamino-ethylamino)-8-methoxy-7-oxo-7,8-dihydro-pyrido[2,3-d]pyrimidin-6-yl]-phenyl)-4-fluoro-3-trifluoromethyl-benzamide] | > 70% | > 70% | < 5 µM | > 10 µM
COn1c(=O)c(-c2cc(NC(=O)c3ccc(Cl)c(Cl)c3)ccc2Cl)cc2cnc(NCCN(C)C)nc21 [Compound 10, 3,4-Dichloro-N-{4-chloro-3-[2-(2-dimethylamino-ethylamino)-8-methoxy-7-oxo-7,8-dihydro-pyrido[2,3-d]pyrimidin-6-yl]-phenyl}-benzamide] | > 70% | > 70% | < 5 µM | > 10 µM
COc1ccc(NC(=O)Nc2ccc(Cl)c(-c3cc4cnc(NCCN(C)C)nc4n(OC)c3=O)c2)cc1Cl [Compound 4, 1-{4-Chloro-3-[2-(2-dimethylamino-ethylamino)-8-methoxy-7-oxo-7,8-dihydro-pyrido[2,3-d]pyrimidin-6-yl]-phenyl}-3-(3-chloro-4-methoxy-phenyl)-urea] | > 70% | > 70% | < 10 µM | > 10 µM
COn1c(=O)c(-c2cc(NC(=O)Nc3ccc(F)c(C(F)(F)F)c3)ccc2Cl)cc2cnc(NCCN(C)C)nc21 [Compound 42, 1-{4-Chloro-3-[2-(2-dimethylamino-ethylamino)-8-methoxy-7-oxo-7,8-dihydro-pyrido[2,3-d]pyrimidin-6-yl]-phenyl}-3-(4-fluoro-3-trifluoromethyl-phenyl)-urea] | > 70% | > 70% | < 5 µM | < 10 µM
COn1c(=O)c(-c2cc(NC(=O)c3cc(F)cc(C(F)(F)F)c3)ccc2Cl)cc2cnc(NCCN(C)C)nc21 [Compound 28] | > 70% | > 70% | < 5 µM | > 10 µM
COn1c(=O)c(-c2cc(NC(=O)Nc3ccc(C(C)(C)C)cc3)ccc2Cl)cc2cnc(NCCN(C)C)nc21 [Compound 44, 1-(4-tert-Butyl-phenyl)-3-{4-chloro-3-[2-(2-dimethylamino-ethylamino)-8-methoxy-7-oxo-7,8-dihydro-pyrido[2,3-d]pyrimidin-6-yl]-phenyl}-urea] | > 70% | > 70% | < 5 µM | < 5 µM
CCN(CC)c1cc(C(=O)Nc2ccc(Cl)c(-c3cc4cnc(NCCN(C)C)nc4n(OC)c3=O)c2)cc(Cl)n1 [Compound 8, 2-Chloro-N-(4-chloro-3-(2-(2-(dimethylamino)ethylamino)-8-methoxy-7-oxo-7,8-dihydropyrido[2,3-d]pyrimidin-6-yl)phenyl)-6-diethylamino-isonicotinamide] | > 70% | > 70% | < 5 µM | < 10 µM
COn1c(=O)c(-c2cc(NC(=O)c3ccc(Cl)c(OC(F)(F)F)c3)ccc2Cl)cc2cnc(NCCN(C)C)nc21 [Compound 30, 4-Chloro-N-(4-chloro-3-[2-(2-dimethylamino-ethylamino)-8-methoxy-7-oxo-7,8-dihydro-pyrido[2,3-d]pyrimidin-6-yl]-phenyl}-3-trifluoromethoxy-benzamide] | > 70% | > 70% | < 5 µM | > 10 µM
COc1cc(C(F)(F)F)ccc1C(=O)Nc1ccc(-c2cc3cnc(NCCN(C)C)nc3n(OC)c2=O)c(Cl)c1 [Compound 51, N-{3-Chloro-4-[2-(2-dimethylamino-ethylamino)-8-methoxy-7-oxo-7,8-dihydro-pyrido[2,3-d]pyrimidin-6-yl]-phenyl}-2-methoxy-4-trifluoromethyl-benzamide] | – | – | < 5 µM | < 10 µM
COn1c(=O)c(-c2ccc(NC(=O)c3ccnc(N4CCOCC4)c3)cc2Cl)cc2cnc(NCCN(C)C)nc21 [Compound 54, N-{3-Chloro-4-[2-(2-dimethylamino-ethylamino)-8-methoxy-7-oxo-7,8-dihydro-pyrido[2,3-d]pymidin-6-yl]-phenyl}-2-morpholin-4-yl-isonicotinamide] | – | – | > 10 µM | > 10 µM
COc1ccc(C(F)(F)F)cc1C(=O)Nc1ccc(Cl)c(-c2cc3cnc(NCCN(C)C)nc3n(OC)c2=O)c1 [Compound 14, N-{4-Chloro-3-[2-(2-dimethylamino-ethylamino)-8-methoxy-7-oxo-7,8-dihydro-pyrido[2,3-d]pyrimidin-6-yl]-phenyl}-2-methoxy-5-trifluoromethyl-benzamide] | – | – | < 5 µM | > 10 µM
COc1cc(C(F)(F)F)ccc1C(=O)Nc1ccc(Cl)c(-c2cc3cnc(NCCN(C)C)nc3n(OC)c2=O)c1 [Compound 15, N-{4-Chloro-3-[2-(2-dimethylamino-ethylamino)-8-methoxy-7-oxo-7,8-dihydro-pyrido[2,3-d]pyrimidin-6-yl]-phenyl}-2-methoxy-4-trifluoromethyl-benzamide] | – | – | < 5 µM | > 10 µM
